“Also recorded” adds a separate entry of the source.
Assays:
[1] = tested on: HLY1; assay: Cell viability assay (Cell Titer Glo, 72 hours); type: cell-based; details: Homo sapiens, HLY1, DLBCL ABC subtype, single agent
Experimental: (§1) In addition, the study further explored the mechanism of action of the combination of acalabrutinib and capivasertib using western blot analysis.
(§2) Cell viability was measured using Cell Titer Glo reagent and readouts were taken using a Tecan plate reader with a 100 ms integration time. Data analysis was carried out using GeneData software version 15. A growth inhibition value less than 1 μM (GI50<1 μM) indicates sensitivity.

[2] = tested on: Karpas-422; assay: Cell viability assay (Cell Titer Glo, 72 hours); type: cell-based; details: Homo sapiens, Karpas-422, DLBCL GCB subtype, single agent
Experimental: as §1, §2

[3] = tested on: OCI-LY10; assay: Cell viability assay (Cell Titer Glo, 72 hours); type: cell-based; details: Homo sapiens, OCI-LY10, DLBCL ABC subtype, single agent
Experimental: as §1, §2

[4] = tested on: OCI-LY19; assay: Cell viability assay (Cell Titer Glo, 72 hours); type: cell-based; details: Homo sapiens, OCI-LY19, DLBCL GCB subtype, single agent
Experimental: as §1, §2

[5] = tested on: OCI-LY3; assay: Cell viability assay (Cell Titer Glo, 72 hours); type: cell-based; details: Homo sapiens, OCI-LY3, DLBCL ABC subtype, single agent
Experimental: as §1, §2

[6] = tested on: SuDHL4; assay: Cell viability assay (Cell Titer Glo, 72 hours); type: cell-based; details: Homo sapiens, SU-DHL-4, SuDHL4, DLBCL GCB subtype, single agent
Experimental: as §1, §2

[7] = tested on: SuDHL6; assay: Cell viability assay (Cell Titer Glo, 72 hours); type: cell-based; details: Homo sapiens, SU-DHL-6, SuDHL6, DLBCL GCB subtype, single agent
Experimental: as §1, §2

[8] = tested on: TMD8; assay: Cell viability assay (Cell Titer Glo, 72 hours); type: cell-based; details: Homo sapiens, TMD8, DLBCL ABC subtype, single agent
Experimental: as §1, §2

[9] = tested on: U2932; assay: Cell viability assay (Cell Titer Glo, 72 hours); type: cell-based; details: Homo sapiens, U2932, DLBCL ABC subtype, single agent
Experimental: as §1, §2

[10] = tested on: WILL1; assay: Cell viability assay (Cell Titer Glo, 72 hours); type: cell-based; details: WILL-1, WILL1, DLBCL Int subtype, single agent
Experimental: as §1, §2

[11] = tested on: WSU-DLCL2; assay: Cell viability assay (Cell Titer Glo, 72 hours); type: cell-based; details: Homo sapiens, WSUDLCL2, WSU-DLCL2, DLBCL GCB subtype, single agent
Experimental: as §1, §2

[12] = tested on: OCI-LY10 cells; assay: Western blot analysis of phospho-proteins; type: cell-based, human; details: 2 or 24 hours; for phosphorylation of AKTS473: 100 nM acalabrutinib or both
Excerpt: (§3) Cells were then lysed in SDS lysis buffer, centrifuged and protein concentrations estimated. Samples were loaded onto Bis-Tris Novex gels, transferred onto nitrocellulose membranes and probed for phospho-proteins of interest.

[13] = tested on: TMD8 cells; assay: Western blot analysis of phospho-proteins; type: cell-based, human; details: 2 or 24 hours; for phosphorylation of AKTS473: 100 nM acalabrutinib or both
Excerpt: as §3

[14] = tested on: TMD8 human ABC DLBCL xenograft; assay: In vivo efficacy in subcutaneous TMD8 human ABC-DLBCL xenograft model; parameters: species or system mouse; details: SCID mice, oral BID, acalabrutinib 20 mg/kg; for TGI (tumor growth inhibition): capivasertib 130 mg/kg 4 days on/3 days off, after 24 days of treatment; for MAX AVG BODY WEIGHT LOSS: capivasertib 130 mg/kg, 24-day study
Experimental: (§4) TMD8 human ABC-DLBCL tumor cells (5×10^6/mouse) were implanted subcutaneously in female CB.17 SCID mice. […] Tumor length and width was measured by caliper and tumor volume was calculated using the formula (length×width^2)*π/6.

[15] = tested on: OCI-Ly10 human ABC DLBCL xenograft; assay: In vivo efficacy in subcutaneous OCI-Ly10 human ABC-DLBCL xenograft model; parameters: species or system mouse; details: SCID mice, oral BID, acalabrutinib 20 mg/kg; for TGI (tumor growth inhibition): capivasertib 130 mg/kg 4 days on/3 days off, after 25 days of treatment; for MAX AVG BODY WEIGHT LOSS: capivasertib 130 mg/kg, 25-day study
Experimental: OCI-ly10 human ABC-DLBCL tumor cells (5×10^6/mouse) were implanted subcutaneously in female CB.17 SCID mice. […] Tumor length and width was measured by caliper and tumor volume was calculated using the formula (length×width^2)*π/6.

[16] = Plasma pharmacokinetics in the TMD8 xenograft efficacy study; type: in vivo, mouse; details: TMD8 xenograft mice; oral; day 20; 1, 2, 4 and 8-hour time points
Experimental: as §4

GI50 [2] [nM] | GI50 [3] [nM] | GI50 [4] [nM] | GI50 [5] [nM] | GI50 [6] [nM] | GI50 [7] [nM] | MAX AVG BODY WEIGHT LOSS [14] [%] | MAX AVG BODY WEIGHT LOSS [15] [%] | Compound | GI50 [1] [nM] | GI50 [8] [nM] | GI50 [9] [nM] | GI50 [10] [nM] | GI50 [11] [nM] | phosphorylation of AKTS473 ([12]; 1 μM capivasertib) | phosphorylation of AKTS473 ([13]; 1 μM capivasertib) | TGI (tumor growth inhibition) [14] [%] | TGI (tumor growth inhibition) [15] [%] | further results
> 3000 | 22 | > 3000 | > 3000 | > 3000 | > 3000 | 5 | 2 | CC#CC(=O)N1CCC[C@H]1c1nc(-c2ccc(C(=O)Nc3ccccn3)cc2)c2c(N)nccn12 [acalabrutinib, 4-{8-amino-3-[(2S)-1-(but-2-ynoyl)pyrrolidin-2-yl]imidazo[1,5-a]pyrazin-1-yl}-N-(pyridin-2-yl)benzamide] | > 3000 | 25 | > 3000 | > 3000 | > 3000 | decreased | decreased | 81 | 74 | phosphorylation of BTK ([12]; 100 nM acalabrutinib): decrease; phosphorylation of BTK ([13]; 100 nM acalabrutinib): decrease; TGI (tumor growth inhibition) ([14]; listed as Acalabrutinib): 81%; TGI (tumor growth inhibition) ([15]; listed as Acalabrutinib): 74%; steady-state drug exposure levels (unbound plasma concentrations), single agent versus combination [16]: similar; also recorded: comparable
200 | > 3000 | > 3000 | > 3000 | 710 | 360 | 2 | 3 | NC1(C(=O)N[C@@H](CCO)c2ccc(Cl)cc2)CCN(c2ncnc3[nH]ccc23)CC1 [capivasertib, (S)-4-amino-N-(1-(4-chlorophenyl)-3-hydroxypropyl)-1-(7H-pyrrolo[2,3-d]pyrimidin-4-yl)piperidine-4-carboxamide] | > 3000 | > 3000 | > 3000 | > 3000 | 60 | increased | increased | 0 | 0 | phosphorylation of the downstream substrates PRAS40, GSK3β, FOXO and S6 ([12]; 1 μM capivasertib): decreased; phosphorylation of the downstream substrates PRAS40, GSK3β, FOXO and S6 ([13]; 1 μM capivasertib): decreased; TGI (tumor growth inhibition) ([14]; listed as Capivasertib): 0%; TGI (tumor growth inhibition) ([15]; listed as Capivasertib): 0%
